Literature values as cited in article PMC2217462 (The Journal of General Physiology, 2004).

How the values were obtained:
[1] = test system: Kv2.1 channel, mutations at F274; conditions: mutations at F274 of Kv2.1; ref Li-Smerin and Swartz, 2000
[2] = test system: Kv2.1 channel, basic substitutions at E277; conditions: substitution of basic residues at E277 of Kv2.1; ref Li-Smerin and Swartz, 2000

hanatoxin
fold increase in hanatoxin Kd [1]: ≤ 500 fold | fold increase in hanatoxin Kd [2]: ≤ 125 fold
